Drawing on patent US10611750B2, “Tetrahydroquinoline compositions as bet bromodomain inhibitors” (FORMA Therapeutics, Inc., priority 2013, dated 2020), this text covers IC50 for 32 molecules.

Assay [1] deals with acute myelocytic leukemia (AML) cell line MV4-11. Description: Oncology cell growth assay (3-day proliferation, CellTiter-Glo). In kind it is cell-based. As to conditions: Homo sapiens, MV4-11, 72 h, MV4-11 cells, 3000 cells/well, compounds listed under IC50 range headings, read-out: MV411 IC50 (gIC50, inhibition of proliferation). In a few lines: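 Compounds were serially diluted 3-fold in DMSO, giving final well concentrations from 10 down to 0.0045 μM. MV4-11 cells were then seeded at 3000 cells/well in RPMI 1640 with 10% FBS and incubated 72 hours. CellTiter-Glo signal was measured and gIC50 obtained by four-parameter logistic regression.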

In assay [2] the target is T1, BRD4 Bromodomain 2 (BRD4 BD2) (Homo sapiens, UniProt O60885).
T1 construct: 333-460 were cloned, expressed, and purified to homogeneity
Description: AlphaScreen binding assay, BRD4 BD2. The conditions noted are these: His-tagged BRD4 BD2 100 nM, biotinylated H4 (1-21) K5/8/12/16 tetra-acetylated peptide 100 nM, compounds listed under IC50 range headings. In a few lines: (§1)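 Compound dilution series were mixed with His-tagged BRD4 bromodomain and biotinylated tetra-acetylated H4 (1-21) peptide at pH 7.3 (BD1 and peptide at 50 nM, BD2 and peptide at 100 nM). Donor and acceptor beads were then added, and plates were equilibrated at least 1 h before reading. IC50 values were fitted with a four-parameter logistic model.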
Background: Alpha assays give light when donor and acceptor beads are brought close together.

Assay [3] has as its target T2, BRD4 Bromodomain 1 (BRD4 BD1) (Homo sapiens, UniProt O60885).
T2 construct: 44-168 and BRD4 BD2
Briefly: AlphaScreen binding assay, BRD4 BD1. The conditions noted are these: His-tagged BRD4 BD1 50 nM, biotinylated H4 (1-21) K5/8/12/16 tetra-acetylated peptide 50 nM, compounds listed under IC50 range headings. Summed up: as §1

For the molecule `CC(=O)N1c2ccc(-c3cnn(C4CCNCC4)c3)c(Oc3ccc(C#N)cc3)c2CC[C@@H]1C` [I-140, (S)-4-(1-acetyl-2-methyl-6-(1-(piperidin-4-yl)-1H-pyrazol-4-yl)-1,2,3,4-tetrahydroquinolin-5-yloxy)benzonitrile], the IC50 in assay [1] is less than 0.5 µM; in assay [2], less than 0.05 µM; in assay [3] it was 0.1 to 1 µM.

As for `COC(=O)N1c2ccc(-c3cnn(C4CC4)c3)c(OCC3CC3(F)F)c2CC[C@@H]1C` (stereo partly drawn) [I-31, (2S)-methyl 6-(1-cyclopropyl-1H-pyrazol-4-yl)-5-((2,2-difluorocyclopropyl)methoxy)-2-methyl-3,4-dihydroquinoline-1(2H)-carboxylate], the IC50 is 0.5 to 1 µM in assay [1], less than 0.05 µM in assay [2] and 0.1 to 1 µM in assay [3].

For the molecule `CCCOc1c(C2CCN(C(C)=O)CC2)ccc2c1CC[C@H](C)N2C(C)=O` [I-354, (S)-1-(4-(1-acetyl-2-methyl-5-propoxy-1,2,3,4-tetrahydroquinolin-6-yl)piperidin-1-yl)ethan-1-one], the IC50 in assay [1] was greater than 1 µM; in assay [2], no less than 0.5 µM; in assay [3], no less than 10 µM.

Turning to `COC(=O)N1c2ccc(-c3cnn(C4CC4)c3)c(Oc3ncc(C4CC4)cn3)c2CC[C@@H]1C` [I-573], the IC50 in assay [1] lay within 0.5 to 1 µM; in assay [2], 0.05 to 0.5 µM; in assay [3], 1 to 10 µM.

Consider `COC(=O)N1c2ccc(-c3cnn(C4CCNCC4)c3)c(OC3CCC3)c2CC[C@@H]1C` [I-447], for which the IC50 in assay [1] is less than 0.5 µM; in assay [2] it was less than 0.05 µM; in assay [3], less than 0.1 µM.

For the molecule `CC(=O)N1c2ccc(-c3cnn(C4CC4)c3)c(OCC(F)F)c2CC[C@@H]1C` [I-36, (S)-1-(6-(1-cyclopropyl-1H-pyrazol-4-yl)-5-(2,2-difluoroethoxy)-2-methyl-3,4-dihydroquinolin-1(2H)-yl)ethanone], the IC50 was 0.5 to 1 µM in assay [1], less than 0.05 µM in assay [2] and 1 to 10 µM in assay [3].

`CC(=O)N1c2ccc(-c3cnn(C4CC4)c3)c(OC3CCC3)c2CC[C@@H]1C` [I-389]: the IC50 in assay [1] was less than 0.5 µM; in assay [2] it was less than 0.05 µM; in assay [3], 0.1 to 1 µM.

Consider `CC(=O)N1c2ccc(-c3cnn(C4CCNCC4)c3)c(Oc3ccc(C(N)=O)cc3)c2CC[C@@H]1C` [I-155, (S)-4-(1-acetyl-2-methyl-6-(1-(piperidin-4-yl)-1H-pyrazol-4-yl)-1,2,3,4-tetrahydroquinolin-5-yloxy)benzamide], for which the IC50 in assay [1] is greater than 1 µM; in assay [2], 0.05 to 0.5 µM; in assay [3], 0.1 to 1 µM.

As for `COC(=O)N1c2ccc(-c3cnn(C4CCNCC4)c3)c(Oc3ncc(C(F)(F)F)cc3F)c2CC[C@@H]1C` [I-536], the IC50 is 0.5 to 1 µM in assay [1], 0.05 to 0.5 µM in assay [2] and 1 to 10 µM in assay [3].

With `CC(=O)N1c2ccc(-c3cnn(C4CC4)c3)c(Oc3ccc(C#N)nn3)c2CC[C@@H]1C` [I-91, (S)-6-(1-acetyl-6-(1-cyclopropyl-1H-pyrazol-4-yl)-2-methyl-1,2,3,4-tetrahydroquinolin-5-yloxy)pyridazine-3-carbonitrile], the figures for the IC50 in assay [1], in assay [2] and in assay [3] were less than 0.5 µM, 0.05 to 0.5 µM and 0.1 to 1 µM, respectively.

Regarding `CC(=O)N1c2ccc(-c3cccc(NS(C)(=O)=O)c3)c(OCC(=O)N(C)C)c2CC[C@@H]1C` [I-491], the IC50 in assay [1] is greater than 1 µM; in assay [2], 0.05 to 0.5 µM; in assay [3], 1 to 10 µM.

Regarding `COC(=O)N1c2ccc(-c3cnn(C4CCCS(=O)(=O)C4)c3)c(OC3CCC3)c2CC[C@@H]1C` (stereo partly drawn) [I-62, Methyl (2S)-5-cyclobutoxy-6-(1-(1,1-dioxidotetrahydro-2H-thiopyran-3-yl)-1H-pyrazol-4-yl)-2-methyl-3,4-dihydroquinoline-1(2H)-carboxylate], the IC50 in assay [1] was less than 0.5 µM; in assay [2], less than 0.05 µM; in assay [3], 0.1 to 1 µM.

On to `CC(=O)N1c2ccc(-c3cnn(C4CC4)c3)c(OC[C@@H]3CCNC3)c2CC[C@@H]1C` [I-602], for which the results for the IC50 in assay [1], in assay [2] and in assay [3] were 0.5 to 1 µM, 0.05 to 0.5 µM and 0.1 to 1 µM, respectively.

Regarding `COC(=O)N1c2ccc(-c3cnn(C4CN(C)C4)c3)c(OC3CCC3)c2CC[C@@H]1C` [I-284, Methyl (S)-5-cyclobutoxy-2-methyl-6-(1-(1-methylazetidin-3-yl)-1H-pyrazol-4-yl)-3,4-dihydroquinoline-1(2H)-carboxylate], the IC50 in assay [1] lay in the range of 0.5 to 1 µM; in assay [2], 0.05 to 0.5 µM; in assay [3], 1 to 10 µM.

As for `COC(=O)N1c2ccc(-c3cnn(C4CCNCC4)c3)c(Oc3ncccn3)c2CC[C@@H]1C` [I-525], the IC50 in assay [1] was less than 0.5 µM; in assay [2], 0.05 to 0.5 µM; in assay [3] it was 1 to 10 µM.

Take `COC(=O)N1c2ccc(-c3cnn(CCS(C)(=O)=O)c3)c(Oc3ncc(C(F)(F)F)cc3F)c2CC[C@@H]1C` [I-588]: the IC50 in assay [1] is greater than 1 µM; in assay [2], 0.05 to 0.5 µM; in assay [3], 1 to 10 µM.

In the case of `COC(=O)N1c2ccc(-c3cnn(C4CCNCC4)c3)c(Oc3cnccn3)c2CC[C@@H]1C` [I-526], the IC50 was less than 0.5 µM in assay [1], 0.05 to 0.5 µM in assay [2] and 1 to 10 µM in assay [3].

Consider `COC(=O)N1c2ccc(-c3cnn(C4CCNC4)c3)c(Oc3ccc(F)cc3)c2CC[C@@H]1C` (stereo partly drawn) [I-185, (2S)-methyl 5-(4-fluorophenoxy)-2-methyl-6-(1-(pyrrolidin-3-yl)-1H-pyrazol-4-yl)-3,4-dihydroquinoline-1(2H)-carboxylate], for which the IC50 in assay [1] is less than 0.5 µM; in assay [2] it was less than 0.05 µM; in assay [3] it was 0.1 to 1 µM.

Consider `COC(=O)N1c2ccc(-c3cnn(C4CCNCC4)c3)c(Oc3ncc(C(F)(F)F)cn3)c2CC[C@@H]1C` [I-534], for which the values for the IC50 in assay [1], in assay [2] and in assay [3] were 0.5 to 1 µM, 0.05 to 0.5 µM and 1 to 10 µM, respectively.

For the molecule `CC(=O)N1c2ccc(-c3cnn(C4CC4)c3)c(OC3CNC3)c2CC[C@@H]1C` [I-60, (S)-1-(5-(azetidin-3-yloxy)-6-(1-cyclopropyl-1H-pyrazol-4-yl)-2-methyl-3,4-dihydroquinolin-1(2H)-yl)ethanone], the IC50 is greater than 1 µM in assay [1], no less than 0.5 µM in assay [2] and no less than 10 µM in assay [3].

Consider `CCCOc1c(-c2cnn(C3CCNCC3)c2)ccc2c1CC[C@H](C)N2C(C)=O` [I-104, (S)-1-(2-methyl-6-(1-(piperidin-4-yl)-1H-pyrazol-4-yl)-5-propoxy-3,4-dihydroquinolin-1 (2H)-yl)ethanone], for which the IC50 in assay [1] was less than 0.5 µM; in assay [2], less than 0.05 µM; in assay [3], less than 0.1 µM.

`CC(=O)N1c2ccc(-c3cnn(CCO)c3)c(Oc3ncc(F)cn3)c2CC[C@@H]1C` [I-543]: the results for the IC50 in assay [1], in assay [2] and in assay [3] were less than 0.5 µM, 0.05 to 0.5 µM and 0.1 to 1 µM, respectively.

Take `CC(=O)N1c2ccc(-c3cnn(CCO)c3)c(Oc3ncc(C4CC4)cn3)c2CC[C@@H]1C` [I-547]: the IC50 in assay [1] is less than 0.5 µM; in assay [2] it was less than 0.05 µM; in assay [3] it was 0.1 to 1 µM.

As to `COC(=O)N1c2ccc(-c3cnn(C4CCNCC4)c3)c(Oc3ccc(C(N)=O)cc3)c2CC[C@@H]1C` [I-161, (S)-methyl 5-(4-carbamoylphenoxy)-2-methyl-6-(1-(piperidin-4-yl)-1H-pyrazol-4-yl)-3,4-dihydroquinoline-1(2H)-carboxylate], the IC50 in assay [1] was greater than 1 µM; in assay [2], less than 0.05 µM; in assay [3], 0.1 to 1 µM.

For `COCCOc1c(-c2cnn(C3CC3)c2)ccc2c1CC[C@H](C)N2C(C)=O` [I-398], the IC50 is 0.5 to 1 µM in assay [1], 0.05 to 0.5 µM in assay [2] and 0.1 to 1 µM in assay [3].

As for `CC(=O)N1c2ccc(-c3cnn(C4CC4)c3)c(OCC(=O)N3CCOCC3)c2CC[C@@H]1C` [I-43, (S)-2-(1-acetyl-6-(1-cyclopropyl-1H-pyrazol-4-yl)-2-methyl-1,2,3,4-tetrahydroquinolin-5-yloxy)-1-morpholinoethanone], the IC50 in assay [1] was greater than 1 µM; in assay [2] it was 0.05 to 0.5 µM; in assay [3] it was 0.1 to 1 µM.

For the molecule `CC(=O)N1c2ccc(-c3cccc(C(=O)N4CCOCC4)c3)c(OCC(=O)N(C)C)c2CC[C@@H]1C` [I-489], the IC50 in assay [2] is no less than 0.5 µM; in assay [3], no less than 10 µM.

As to `COC(=O)N1c2ccc(-c3cnn(CCO)c3)c(OCC3CCOCC3)c2CC[C@@H]1C` [I-450], the IC50 is 0.05 to 0.5 µM in assay [2] and 1 to 10 µM in assay [3].

Regarding `CC(=O)N1c2ccc(-c3cnn(C4CC4)c3)c(OC(C)(C)C(N)=O)c2CC[C@@H]1C` [I-40, (S)-2-(1-acetyl-6-(1-cyclopropyl-1H-pyrazol-4-yl)-2-methyl-1,2,3,4-tetrahydroquinolin-5-yloxy)-2-methylpropanamide], the IC50 lay in the range of 0.05 to 0.5 µM in assay [2] and 1 to 10 µM in assay [3].

As for `CC(=O)N1c2cccc(OCC(=O)N(C)C)c2CC[C@@H]1C` [I-606], the IC50 in assay [2] is no less than 0.5 µM; in assay [3], no less than 10 µM.

For the molecule `CC(=O)N1c2ccc(-c3cnn(C4CC4)c3)c(OCc3ccn(C)n3)c2CC[C@@H]1C` [I-405], the results for the IC50 in assay [2] and in assay [3] were 0.05 to 0.5 µM and 1 to 10 µM, respectively.

Take `COC(=O)N1c2ccc(-c3cnn(C4CC4)c3)c(OCC(F)(F)F)c2CC[C@@H]1C` [I-9, (S)-methyl 6-(1-cyclopropyl-1H-pyrazol-4-yl)-2-methyl-5-(2,2,2-trifluoroethoxy)-3,4-dihydroquinoline-1(2H)-carboxylate]: the IC50 was no less than 0.5 µM in assay [2] and no less than 10 µM in assay [3].
